Structures are written as SMILES. Where a SMILES comes first, the peptide text is derived from it. The star is where a group is joined. Cbz = O=C(OCc1ccccc1)*

This experiment concerns the target Coagulation factor XI (Homo sapiens, UniProt P03951). In words: FXIa inhibitor IC50 values, dose response, biochemical, hits from 1536-well screen (AID 846). Conditions: pH 7.4; 23 °C.

Chain of Coagulation factor XI (P03951 19-387 limits assumed): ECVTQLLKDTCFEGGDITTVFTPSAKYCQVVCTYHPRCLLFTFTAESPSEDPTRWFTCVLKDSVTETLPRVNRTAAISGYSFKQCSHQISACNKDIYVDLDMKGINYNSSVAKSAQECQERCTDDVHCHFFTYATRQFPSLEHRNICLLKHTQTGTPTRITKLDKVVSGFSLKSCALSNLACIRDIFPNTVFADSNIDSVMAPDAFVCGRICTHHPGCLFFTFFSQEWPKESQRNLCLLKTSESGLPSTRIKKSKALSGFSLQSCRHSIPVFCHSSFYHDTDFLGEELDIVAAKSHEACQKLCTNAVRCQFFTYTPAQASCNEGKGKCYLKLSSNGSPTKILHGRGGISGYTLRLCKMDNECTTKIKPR
Chain of Coagulation factor XI (P03951 388-625 limits assumed): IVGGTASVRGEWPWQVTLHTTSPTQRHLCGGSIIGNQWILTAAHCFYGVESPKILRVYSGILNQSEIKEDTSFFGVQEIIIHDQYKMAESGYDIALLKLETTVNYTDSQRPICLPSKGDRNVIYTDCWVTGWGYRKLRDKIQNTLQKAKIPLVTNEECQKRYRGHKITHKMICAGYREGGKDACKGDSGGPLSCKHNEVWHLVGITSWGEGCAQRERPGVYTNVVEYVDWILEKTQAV

Regarding `CCc1cc2c(SCC(=O)N(C)C3CCS(=O)(=O)C3)ncnc2s1` (stereo not drawn) [N-(1,1-dioxothiolan-3-yl)-2-(6-ethylthieno[2,3-d]pyrimidin-4-yl)sulfanyl-N-methylacetamide], the half-maximal inhibitory concentration (IC50) – broadly, the concentration that gives 50% inhibition – was above 50 µM.

In turn, `CC(=O)c1ccc(NC(S)=Nc2cccc3cnccc23)cc1` [1-(4-acetylphenyl)-3-(5-isoquinolinyl)thiourea] displayed an IC50 above 50 µM. In turn, `O=C(Nc1nc(-c2ccccc2)cs1)c1ccc(S(=O)(=O)N2CCc3ccccc32)cc1` [SMR000235796] returned an IC50 above 50 µM. On to `COc1ccc(C)cc1NC(=O)COC(=O)C1CCN(C(=O)c2ccc(Cl)cc2)CC1` [[2-[(2-methoxy-5-methyl-phenyl)amino]-2-oxidanylidene-ethyl] 1-(4-chlorophenyl)carbonylpiperidine-4-carboxylate], for which the IC50 is above 50 µM. Then `S=C(NCCc1ccccc1)Nc1ccc(Br)cn1` [3-(5-bromopyridin-2-yl)-1-(2-phenylethyl)thiourea], with above 50 µM; and `O=C(NCc1ccco1)C1CC(c2ccccc2C(F)(F)F)=NO1` (stereo not drawn) [N-(2-furanylmethyl)-3-[2-(trifluoromethyl)phenyl]-4,5-dihydroisoxazole-5-carboxamide], with above 50 µM. Take `C=CCNc1nc(NC(C)(C)CO)nc(OC)n1` [SMR000117555]: the IC50 was above 50 µM. `COc1ccc(C(=O)NN=Cc2cc3ccccc3[nH]c2=O)cc1` yielded an IC50 above 50 µM.

With `O=C(Cc1cccs1)Nc1nnc(CCc2ccccc2)s1` [MLS000064221], the half-maximal inhibitory concentration (IC50) was above 50 µM. Then `O=C(Oc1ccc2ccc(=O)oc2c1)c1cccs1` [2-thiophenecarboxylic acid (2-oxo-1-benzopyran-7-yl) ester], with 2.68 µM; and `CC1=CCC2C(=O)N(C(C)c3ccccc3)C(=O)C2C1` (stereo not drawn) [5-methyl-2-(1-phenylethyl)-3a,4,7,7a-tetrahydro-1H-isoindole-1,3(2H)-dione], with above 50 µM. As for `CCn1c(C)nc2cc(C(=O)NN=C(C)c3ccc(OC)cc3O)ccc21` [1-ethyl-N'-[(1E)-1-(4-methoxy-6-oxidanylidene-cyclohexa-2,4-dien-1-ylidene)ethyl]-2-methyl-benzimidazole-5-carbohydrazide], the IC50 is above 50 µM.

In turn, `Oc1ccc(CN=Nc2nc(-c3cccnc3)nc3ccccc23)c(O)c1` [(4E)-3-hydroxy-4-[[2-(2-pyridin-3-ylquinazolin-4-yl)hydrazinyl]methylidene]cyclohexa-2,5-dien-1-one] showed an IC50 above 50 µM. For `COc1c(C)cc(C(=O)C2CCCN(S(=O)(=O)c3c(C)noc3C)C2)cc1C` (stereo not drawn) [MLS000693702], the IC50 is above 50 µM.

The compound `COc1ccc(N2C(=O)C(Cl)=C(N3CCCC(C)C3)C2=O)cc1` (stereo not drawn) [SMR000142424] gave an IC50 above 50 µM.

Take `O=C(Nc1ccc(Cl)cc1)Nc1ccccc1C(=O)NCc1ccco1` [2-[(4-chlorophenyl)carbamoylamino]-N-(furan-2-ylmethyl)benzamide]: the IC50 is above 50 µM. `COc1ccc(OC)c(S(=O)(=O)N2CCCC(C)C2)c1` (stereo not drawn) [MLS000035543] displayed an IC50 above 50 µM. On to `CCc1ccccc1-n1c(O)cc(=O)[nH]c1=O`, for which the IC50 is above 50 µM. The figure for `O=C(c1cccn2c(=O)c3cc(Br)ccc3nc12)N1CCC2(CC1)OCCO2` [2-bromanyl-6-(1,4-dioxa-8-azaspiro[4.5]decan-8-ylcarbonyl)pyrido[2,1-b]quinazolin-11-one] is above 50 µM; for `O=C(Oc1cncc(Cl)c1)c1ccco1` it is 0.741 µM. In turn, `C=C(C)CNC(=S)NN=C(C)c1cccc(NC(C)=O)c1` [SMR000384154] showed an IC50 above 50 µM. In turn, `Cc1cccc(CN2CCN(CC(=O)N3CCCC3)C2=O)c1` [SMR000130591] displayed an IC50 above 50 µM. Consider `CC(Cc1ccccc1)=NNC(=O)CNC(=O)C=Cc1ccccc1` [(Z)-N-[2-oxo-2-[2-(1-phenylpropan-2-ylidene)hydrazinyl]ethyl]-3-phenyl-2-propenamide], for which the IC50 is above 50 µM. Compound `COc1ccccc1CC(=O)NCc1csc(-c2cccs2)n1` [MLS000859819] gave an IC50 above 50 µM. Then `Cc1n[nH]c(C)c1CCC(=O)NN=Cc1c[nH]c2ccccc12` [3-(3,5-Dimethyl-1H-pyrazol-4-yl)-propionic acid [1-(1H-indol-3-yl)-meth-(E)-ylidene]-hydrazide], with above 50 µM; and `COC(=O)c1c(NC(=O)COC(=O)Cn2cnc3ccccc32)sc(C)c1C` [SMR000062436], with above 50 µM; and `O=C(COC(=O)c1cc(=O)c2ccccc2o1)NC1CCCCC1` [[2-(cyclohexylamino)-2-oxidanylidene-ethyl] 4-oxidanylidenechromene-2-carboxylate], with above 50 µM. `COc1ccc(N(CC(=O)NCc2ccc(Cl)cc2)S(=O)(=O)c2ccccc2[N+](=O)[O-])c(OC)c1` [N-[(4-chlorophenyl)methyl]-2-(2,4-dimethoxy-N-(2-nitrophenyl)sulfonylanilino)acetamide] showed an IC50 above 50 µM.

As to `COc1ccc(S(=O)(=O)NCCOc2cccc3cccnc23)cc1OC` [MLS000716779], the IC50 was above 50 µM. `O=C(O)c1ccc(N=C(NS(=O)(=O)c2ccc(Cl)cc2)c2ccccc2)cc1` [4-({[(E)-4-Chloro-benzenesulfonylimino]-phenyl-methyl}-amino)-benzoic acid] displayed an IC50 above 50 µM. The compound `CCOc1cccc2c1OC1(C)CC2NC(=O)N1Cc1ccccc1` (stereo not drawn) [MLS000730538] came in with an IC50 above 50 µM. The compound `CC(C)(C)C(=O)Nc1ccc(C(=O)NN=Cc2ccccc2OC(=O)c2ccccc2)cc1` [SMR000174811] had an IC50 above 50 µM. Take `NS(=O)(=O)c1ccc(CCNC(=O)Cc2ccccc2[N+](=O)[O-])cc1` [MLS000689902]: the IC50 is above 50 µM.

As for `Cc1cccc(OCC(=O)NN=Cc2ccccc2C(=O)O)c1` [SMR000372421], the IC50 was above 50 µM.

As for `COc1cc([N+](=O)[O-])cc2sc(NC(C)=O)nc12` [MLS000708454], the IC50 is above 50 µM. On to `COc1cc(C(=O)NC(=S)N(C)Cc2ccccc2)cc(OC)c1OC` [N-[benzyl(methyl)carbamothioyl]-3,4,5-trimethoxybenzamide], for which the IC50 is above 50 µM. `CC(=O)c1ccc(NC(=O)C(Cl)=Cc2ccccc2)cc1` [(Z)-N-(4-acetylphenyl)-2-chloro-3-phenyl-2-propenamide] returned an IC50 above 50 µM. Turning to `COc1ccccc1NS(=O)(=O)c1ccc(O)c(C(=O)OCC(=O)c2ccc(Cl)cc2Cl)c1` [SMR000369457], the IC50 is above 50 µM. Then `COc1ccc(C=NNC(=O)CCn2cnc3ccccc32)cc1` [MLS000769034], with above 50 µM; and `Cc1ccc(C(=O)NCC(=O)OC(C)C(=O)Nc2ccc(N3CCOCC3)cc2)s1` (stereo not drawn) [[1-(4-morpholin-4-ylanilino)-1-oxopropan-2-yl] 2-[(5-methylthiophene-2-carbonyl)amino]acetate], with above 50 µM; and `Cc1ccc(C(=O)n2nc(-c3cccnc3)nc2N)cc1` [1-(4-methylbenzoyl)-3-(3-pyridinyl)-1H-1,2,4-triazol-5-amine], with above 50 µM.

`CC(C)C(NC(=O)C(Cc1ccccc1)NC(=O)OCc1ccccc1)C(=O)O` (stereo not drawn) [3-methyl-2-[[1-oxo-3-phenyl-2-(phenylmethoxycarbonylamino)propyl]amino]butanoic acid] (Cbz-Phe-Val-OH; configuration not given here): the IC50 was above 50 µM. As to `CCc1nnc(NC(=O)c2ccc(NC(=O)C(C)C)cc2)s1` [SMR000290444], the IC50 is above 50 µM.

The values above are taken from BindingDB's records for doi:10.7270/Q2H993J6 (Pcmd, 2008).
